According to PubChem BioAssay (NCI):
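Cells were grown in 96-well plates and exposed to each compound for 48 hours at five concentrations; endpoints were interpolated linearly between bracketing concentrations, or set to the highest concentration if not reached. TGI is the concentration that stops growth completely.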

Assays:
Test in all cases: NCI anticancer screen, dose series, 48 h
MDA-MB-231 breast = system: MDA-MB-231 breast
NCI-H522 lung = system: NCI-H522 lung
SR leukemia = system: SR leukemia
NCI-H460 lung = system: NCI-H460 lung
BT-549 breast = system: BT-549 breast
UO-31 renal = system: UO-31 renal
OVCAR-8 ovarian = system: OVCAR-8 ovarian
SF-295 CNS = system: SF-295 CNS
MOLT-4 leukemia = system: MOLT-4 leukemia
LOX IMVI melanoma = system: LOX IMVI melanoma
OVCAR-3 ovarian = system: OVCAR-3 ovarian
HT29 colon = system: HT29 colon
DU-145 prostate = system: DU-145 prostate
UACC-62 melanoma = system: UACC-62 melanoma
SF-539 CNS = system: SF-539 CNS
SK-MEL-5 melanoma = system: SK-MEL-5 melanoma
M14 melanoma = system: M14 melanoma
786-0 renal = system: 786-0 renal
HCT-116 colon = system: HCT-116 colon
TK-10 renal = system: TK-10 renal
HOP-62 NSCLC = system: HOP-62 NSCLC
NCI-H226 lung = system: NCI-H226 lung
RPMI-8226 leukemia = system: RPMI-8226 leukemia
EKVX NSCLC = system: EKVX NSCLC
OVCAR-5 ovarian = system: OVCAR-5 ovarian
MDA-N = system: MDA-N
T-47D breast = system: T-47D breast
NCI-H23 lung = system: NCI-H23 lung
SK-OV-3 ovarian = system: SK-OV-3 ovarian
ACHN renal = system: ACHN renal
NCI/ADR-RES ovarian = system: NCI/ADR-RES ovarian
SK-MEL-2 melanoma = system: SK-MEL-2 melanoma
A498 renal = system: A498 renal
A549 NSCLC = system: A549 NSCLC
HL-60(TB) leukemia = system: HL-60(TB) leukemia
UACC-257 melanoma = system: UACC-257 melanoma
HCT-15 colon = system: HCT-15 colon
SK-MEL-28 melanoma = system: SK-MEL-28 melanoma
SN12C renal = system: SN12C renal
MCF7 breast = system: MCF7 breast
SNB-75 CNS = system: SNB-75 CNS
PC-3 prostate = system: PC-3 prostate
OVCAR-4 ovarian = system: OVCAR-4 ovarian
K-562 leukemia = system: K-562 leukemia
SF-268 CNS = system: SF-268 CNS
HS 578T breast = system: HS 578T breast
SNB-19 CNS = system: SNB-19 CNS
COLO 205 colon = system: COLO 205 colon
CAKI-1 renal = system: CAKI-1 renal
MDA-MB-435 = system: MDA-MB-435
CCRF-CEM leukemia = system: CCRF-CEM leukemia
KM12 colon = system: KM12 colon
U251 CNS = system: U251 CNS
SW-620 colon = system: SW-620 colon
IGROV1 ovarian = system: IGROV1 ovarian
RXF 393 renal = system: RXF 393 renal
MALME-3M melanoma = system: MALME-3M melanoma
HCC-2998 colon = system: HCC-2998 colon

Measured: TGI

c1ccc(NNC2=NCCN2)cc1
not listed: RXF 393 renal | MALME-3M melanoma | HCC-2998 colon
> 100 µM: all other assays above

O=c1[nH][nH]c(=O)n1Cc1cccc(Cn2c(=O)[nH][nH]c2=O)c1
not listed: SF-295 CNS | HOP-62 NSCLC | ACHN renal | IGROV1 ovarian
> 100 µM: all other assays above
